Assay results published in patent US5208217A, “Hepatospecific insulin analogues” (Mount Sinai School of Medicine of The City University of …, priority 1991, dated 1993).

What was measured:
[1] = tested on: FAO cells (well differentiated hepatoma cell line); assay: Inhibition of gluconeogenesis assay (glucose secretion into the medium); format: cell-based; conditions: FIG. 4
Protocol: This assay was carried out on confluent monolayers of a well differentiated hepatoma cell line (Lauris et al. Endocrinology 118:2519-2524 (1986)) in which glucose production was monitored with a commercial glucose oxidase kit (Sigma kit no. 510-A, Sigma Technical Bulletin 510, 1983). Inhibition of glucose secretion into the medium was determined as a function of the concentration of insulin or insulin analogue, and the relative potency of the analogue was defined as the ratio of the concentration of insulin to analogue required to produce half-maximal inhibition of glucose production. The cell culture and glucose production was carried out as described by Lauris et al., supra.
The potency of the synthetic insulin in inhibiting gluconeogenesis is calculated to be about 90% relative to the natural hormone.

isolated rat adipocytes = assay: Lipogenesis assay: conversion of [3-3H] glucose into lipids; format: cell-based; conditions: FIG. 3
Excerpt: In this Example the materials used and the analytical procedures followed are those found in Kitagawa et al., Biochemistry, 23: 1405-1413 (1984). ^125 I-insulin for receptor binding studies and [3-^3 H] glucose for lipogenesis were obtained from DuPont NEN Research Products. Cellulose acetate membrane filters, 0.2 μm pore size, were products of Sartorius. Glass-fiber filters, Type GFC, were from Whatman. Collagenase, Type II crude, was obtained from Worthington. The scintillation fluids Filtron-X®, Hydrofluor® and Soluscint-O® were products of National Diagnostics. Crystalline bovine insulin was from Sigma, and fatty-acid free bovine serum albumin from Boehringer - Mannheim Biochemicals.
The data points represent the mean triplicate determinations in representative assays performed four times.

[Trp^14 -A] insulin
Concentration of agonist producing half-maximal inhibition of gluconeogenesis compared with insulin [1]: approximately the same concentration
Maximum inhibition of gluconeogenesis compared with insulin [1]: same maximum inhibition
Concentration of agonist producing half-maximal stimulation of lipogenesis compared with bovine insulin (isolated rat adipocytes): about twice the concentration
Maximum stimulation of lipogenesis compared with bovine insulin (isolated rat adipocytes): same maximum stimulation
